Laboratory results taken from patent US12516048B2, “B-lactam compounds, their preparation and use as antibacterial agents” (NINGXIA ACADEMY OF AGRICULTURE AND FORESTRY SCIENCES, priority 2020, dated 2026).

Tests used:
Test in all cases: MIC determination, broth microdilution (CLSI)
Type in all cases: cell-based
A. baumannii 19606 = conditions: Acinetobacter baumannii, Mueller Hinton Broth II, 37° C., 18-24 hours, read-out: Strain8 MIC
Method: (§1) Compounds of this invention were tested for antimicrobial activity by determining minimum inhibitory concentrations (MICs, in μg/mL) using the broth microdilution method according to the guidelines of the Clinical Laboratories and Standards Institute (“Methods for Dilution Antimicrobial Susceptibility Tests for Bacteria that Grow Aerobically”, Approved standard, 7th ed., Clinical and Laboratory Standards Institute (CLSI) Document M7-A8, Wayne, Pa., USA, 2009.). AZT: aztreonam (AZT) and ceftazidime (CAZ) were used as control antibiotics. Test compounds were dissolved in DMSO. The compounds were then diluted in microbial growth medium (Mueller Hinton Broth II, cation adjusted) resulting in a final concentration range of 0.063-64 μg/mL in serial two-fold dilution. In all cases the final DMSO concentration was less than 0.5%. Bacteria were added to 96-well microtitre plates containing the two-fold dilutions of the compounds; the final cell density was approximately 5×10^5 colony forming units/mL (CFU/mL). Plates were incubated at 37° C. for 18-24 hours and read visually. The MIC, i.e. the lowest concentration of the test compound that inhibited visible growth of the bacteria, was recorded. The same assay conditions were used when the compounds of this invention were tested in combination with β-lactamase inhibitors. While the compounds of this invention were serially diluted as described above, a constant concentration of the inhibitor of 4 mg/L was used.
(§2) Bacterial strains that were used to evaluate the antimicrobial activity using the MIC determination included but were not limited to E. coli clinical isolate, E. coli 8739, K. pneumoniae clinical isolate, K. pneumoniae 700603, E. cloacae clinical isolate, E. cloacae 700323, A. baumannii clinical isolate, A. baumannii 19606, P. aeruginosa clinical isolate, P. aeruginosa 9027.

[1] = test system: A. baumannii clinical isolate; conditions: Acinetobacter baumannii, Mueller Hinton Broth II, 37° C., 18-24 hours, read-out: Strain 7 MIC
Method: as §1, §2

E. cloacae 700323 = conditions: Enterobacter cloacae, Mueller Hinton Broth II, 37° C., 18-24 hours, read-out: Strain 6 MIC
Method: as §1, §2

[2] = test system: E. cloacae clinical isolate; conditions: Enterobacter cloacae, Mueller Hinton Broth II, 37° C., 18-24 hours, read-out: Strain5 MIC
Method: as §1, §2

E. coli 8739 = conditions: Escherichia coli, Mueller Hinton Broth II, 37° C., 18-24 hours, read-out: Strain 2 MIC
Method: as §1, §2

E. coli clinical isolate = conditions: Escherichia coli, Mueller Hinton Broth II, 37° C., 18-24 hours, read-out: Strain 1 MIC
Method: as §1, §2

K. pneumoniae 700603 = conditions: Klebsiella pneumoniae, Mueller Hinton Broth II, 37° C., 18-24 hours, read-out: Strain 4 MIC
Method: as §1, §2

[3] = test system: K. pneumoniae clinical isolate; conditions: Klebsiella pneumoniae, Mueller Hinton Broth II, 37° C., 18-24 hours, read-out: Strain 3 MIC
Method: as §1, §2

P. aeruginosa 9027 = conditions: Pseudomonas aeruginosa, Mueller Hinton Broth II, 37° C., 18-24 hours, read-out: Strain 10 MIC
Method: as §1, §2

[4] = test system: P. aeruginosa clinical isolate; conditions: Pseudomonas aeruginosa, Mueller Hinton Broth II, 37° C., 18-24 hours, read-out: Strain 9 MIC
Method: as §1, §2

Row | MIC (A. baumannii 19606) [µg/mL] | MIC [1] [µg/mL] | MIC (E. cloacae 700323) [µg/mL] | MIC [2] [µg/mL] | MIC (E. coli 8739) [µg/mL] | MIC (E. coli clinical isolate) [µg/mL] | MIC (K. pneumoniae 700603) [µg/mL] | MIC [3] [µg/mL] | MIC (P. aeruginosa 9027) [µg/mL] | MIC [4] [µg/mL] | Structure (SMILES)
1 | 32 | > 64 | > 64 | > 64 | 16 | > 64 | 64 | 64 | 16 | > 64 | C[C@H]1[C@H](NC(=O)/C(=N\OC(C)(C)C(=O)O)c2csc(N)n2)C(=O)N1S(=O)(=O)O [AZT, Aztreonam, reference compound]
2 | > 64 | > 64 | > 64 | > 64 | > 64 | > 64 | > 64 | > 64 | > 64 | > 64 | CC(C)(O/N=C(\C(=O)N[C@@H]1C(=O)N2C(C(=O)[O-])=C(C[n+]3ccccc3)CS[C@H]12)c1csc(N)n1)C(=O)O [CAZ, Ceftazidime, reference compound]
3 | 16 | 32 | 32 | 64 | 4 | 4 | 32 | 32 | 8 | 16 | Cc1sc(N)nc1/C(=N/O[C@@H](COc1ccc(C(=N)NC2CCNCC2)cc1)C(=O)O)C(=O)N[C@@H]1C(=O)N(OS(=O)(=O)O)C1(C)C [Example 1, (S)-2-((((Z)-1-(2-Amino-5-methylthiazol-4-yl)-2-(((S)-2,2-dimethyl-4-oxo-1-(sulfooxy)azetidin-3-yl)amino)-2-oxoethylidene)amino)oxy)-3-(4-(N-(piperidin-4-yl)carbamimidoyl)phenoxy)propanoic acid]
4 | 16 | 16 | 32 | 64 | 2 | 4 | 64 | 32 | 32 | 8 | Cc1sc(N)nc1/C(=N/O[C@@H](COc1ccc(C(=N)N[C@@H]2CCCNC2)cc1)C(=O)O)C(=O)N[C@@H]1C(=O)N(OS(=O)(=O)O)C1(C)C [Example 2, (S)-2-((((Z)-1-(2-Amino-5-methylthiazol-4-yl)-2-(((S)-2,2-dimethyl-4-oxo-1-(sulfooxy)azetidin-3-yl)amino)-2-oxoethylidene)amino)oxy)-3-(4-(N-((R)-piperidin-3-yl)carbamimidoyl)phenoxy)propanoic acid]
5 | 32 | 32 | 32 | 64 | 4 | 4 | 64 | 32 | 8 | 8 | Cc1sc(N)nc1/C(=N/O[C@@H](COc1ccc(C(=N)N[C@H]2CCNC2)cc1)C(=O)O)C(=O)N[C@@H]1C(=O)N(OS(=O)(=O)O)C1(C)C [Example 3, (S)-2-((((Z)-1-(2-Amino-5-methylthiazol-4-yl)-2-(((S)-2,2-dimethyl-4-oxo-1-(sulfooxy)azetidin-3-yl)amino)-2-oxoethylidene)amino)oxy)-3-(4-(N-((S)-pyrrolidin-3-yl)carbamimidoyl)phenoxy)propanoic acid]
6 | 16 | 32 | 32 | 32 | 4 | 4 | 64 | 32 | 4 | 8 | Cc1sc(N)nc1/C(=N/O[C@@H](COc1ccc(C(=N)NC2CNC2)cc1)C(=O)O)C(=O)N[C@@H]1C(=O)N(OS(=O)(=O)O)C1(C)C [Example 4, (S)-2-((((Z)-1-(2-Amino-5-methylthiazol-4-yl)-2-(((S)-2,2-dimethyl-4-oxo-1-(sulfooxy)azetidin-3-yl)amino)-2-oxoethylidene)amino)oxy)-3-(4-(N-(azetidin-3-yl)carbamimidoyl)phenoxy)propanoic acid]
7 | 16 | 32 | 32 | 64 | 4 | 4 | 64 | 32 | 4 | 4 | Cc1sc(N)nc1/C(=N/O[C@@H](COc1ccc(C(=N)N[C@H]2CCCNC2)cc1)C(=O)O)C(=O)N[C@@H]1C(=O)N(OS(=O)(=O)O)C1(C)C [Example 5, (S)-2-((((Z)-1-(2-Amino-5-methylthiazol-4-yl)-2-(((S)-2,2-dimethyl-4-oxo-1-(sulfooxy)azetidin-3-yl)amino)-2-oxoethylidene)amino)oxy)-3-(4-(N-((S)-piperidin-3-yl)carbamimidoyl)phenoxy)propanoic acid]
8 | 8 | 8 | 4 | 2 | 0.25 | 1 | 1 | 1 | 2 | 2 | Cc1sc(N)nc1/C(=N/O[C@@H](COc1ccc(C(=N)N[C@@H]2CCNC2)cc1)C(=O)O)C(=O)N[C@@H]1C(=O)N(OS(=O)(=O)O)C1(C)C [Example 6, (S)-2-((((Z)-1-(2-Amino-5-methylthiazol-4-yl)-2-(((S)-2,2-dimethyl-4-oxo-1-(sulfooxy)azetidin-3-yl)amino)-2-oxoethylidene)amino)oxy)-3-(4-(N-((R)-pyrrolidin-3-yl)carbamimidoyl)phenoxy)propanoic acid]
9 | 16 | 16 | 32 | 32 | 8 | 32 | 8 | 16 | 16 | 8 | CC1(C)[C@H](NC(=O)/C(=N\O[C@@H](COc2ccc(C(=N)N[C@@H]3CCNC3)cc2)C(=O)O)c2nc(N)sc2C(F)(F)F)C(=O)N1OS(=O)(=O)O [Example 7, (S)-2-((((Z)-1-(2-Amino-5-(trifluoromethyl)thiazol-4-yl)-2-(((S)-2,2-dimethyl-4-oxo-1-(sulfooxy)azetidin-3-yl)amino)-2-oxoethylidene)amino)oxy)-3-(4-(N-((R)-pyrrolidin-3-yl)carbamimidoyl)phenoxy)propanoic acid]
10 | 16 | 32 | 32 | 64 | 0.5 | 1 | 64 | 32 | 1 | 16 | Cc1sc(N)nc1/C(=N/O[C@@H](COc1ccc(C(=N)N[C@@H]2CCNC2)cc1)C(=O)O)C(=O)N[C@@H]1C(=O)N(S(=O)(=O)O)[C@H]1C [Example 8, (S)-2-((((Z)-1-(2-amino-5-methylthiazol-4-yl)-2-(((2S,3S)-2-methyl-4-oxo-1-sulfoazetidin-3-yl)amino)-2-oxoethylidene)amino)oxy)-3-(4-(N-((R)-pyrrolidin-3-yl)carbamimidoyl)phenoxy)propanoic acid]
